Results taken from US12479791B2, “Cationic lipid” (Takeda Pharmaceutical Company Limited, priority 2018, dated 2025).

Legend:
[1] = Analysis of Col1a1 siRNA + FVII siRNA-encapsulated lipid nanoparticle (Production Example 3); type: physicochemical; settings: for Rate of encapsulation / Particle size: Col1a1 siRNA + FVII siRNA lipid nanoparticle; for Particle size: cationic lipid:DPPC:cholesterol:GS-020=60:10.6:28:1.4; for Col1a1 siRNA + FVII siRNA concentration: lipid nanoparticle dispersion after dialysis and filtration
Source text: (§1) The particle size of the lipid particle (in the composition) can be measured by a known approach. For example, the particle size can be calculated as a Z-average particle size by the cumulant analysis of an autocorrelation function using a particle size measurement apparatus Zetasizer Nano ZS (Malvern Instruments) based on a dynamic light scattering measurement technique. The particle size (average particle size) of the lipid particle (in the composition) is, for example, 10 to 200 nm, preferably 60 to 170 nm.
(§2) The concentration and rate of encapsulation of the nucleic acid (e.g., siRNA or mRNA) in the composition of the present invention can be measured by a known approach. For example, the nucleic acid is fluorescently labeled using Quant-iT™ RiboGreen® (Invitrogen Corp.), and the fluorescence intensity can be measured to determine the concentration and the rate of encapsulation. The concentration of the nucleic acid in the composition can be calculated using a calibration curve prepared from aqueous nucleic acid solutions having known concentrations. The rate of encapsulation can be calculated on the basis of the difference in fluorescence intensity between the presence and absence of addition of Triton-X 100 (surfactant for disrupting the lipid particle). The concentration of the nucleic acid in the composition refers to the total concentration of a nucleic acid encapsulated in the lipid particle and an unencapsulated nucleic acid. The rate of encapsulation refers to the ratio of the nucleic acid encapsulated in the lipid particle to all nucleic acids in the composition.
A lipid mixture (cationic lipid:DPPC:cholesterol:GS-020=60:10.6:28:1.4, molar ratio) was dissolved in 90% of EtOH and 10% of a 25 mM acetate buffer solution (pH 4.0) to obtain a 7.4 mg/ml lipid solution. siRNA against collagen 1a1 (Col1a1) and siRNA against factor VII (FVII) were dissolved in equal weights in a 25 mM acetate buffer solution (pH 4.0) to obtain a 0.15 mg/ml nucleic acid solution. The sequences of Col1a1 siRNA and FVII siRNA were quoted from Hepatology, […], No. 4, 2015, and Silence, Vol. 1, No. 16, 2010, respectively. The obtained lipid solution and nucleic acid solution were mixed at a flow rate ratio of 1 ml/min:5 ml/min using a microfluidic mixing apparatus NanoAssemblr (Precision NanoSystems Inc.) to obtain a dispersion containing a composition. The obtained dispersion was dialyzed against water at room temperature for 1 hour and against PBS at room temperature for 18 hours using Slyde-A-Lyzer (molecular weight cutoff: 20 K, Thermo Fischer Scientific Inc.). Subsequently, the dialysate was filtered through a 0.2 μm syringe filter (Iwaki) and preserved at 4° C. The siRNA-encapsulated lipid nanoparticle was very favorably formed using the compound of the present invention.

Col1a1 gene = experiment: Hepatic collagen 1a1 gene knockdown in CCl4 hepatic fibrosis mouse model; type: in vivo; settings: male Balb/c mouse, Col1a1 siRNA + FVII siRNA 0.1 + 0.1 mg/kg intravenous, liver 4 days after administration, qPCR normalized with GAPDH, vs siRNA non-administration group
Experimental: (§3) The Col1a1 siRNA-encapsulated lipid nanoparticle was administered at 0.1 mg/kg into the orbital plexus of the vein of each 8-week-old male Balb/c mouse. 3 hours later, CCl4 mixed with corn oil was orally administered at a dose of 0.1 mL/kg (10 mL/kg) by forced single-dose administration (n=6 in each group). 4 days after the administration of the siRNA-encapsulated lipid nanoparticle, the liver was collected from the mouse euthanized under anesthesia, followed by gene expression analysis by quantitative PCR. The Col1a1 gene expression level and the FVII gene expression level were normalized with the expression level of GAPDH. The amount of decrease in Col1a1 gene expression as compared with a siRNA non-administration group was regarded as the rate of knockdown. In mice intravenously given the siRNA-encapsulated lipid nanoparticle formed using the compound of the present invention, the knockdown of the activated stellate cell marker gene Col1a1 gene was strongly observed, as compared with the rate of knockdown of the hepatic parenchymal cell marker gene FVII.

FVII gene = experiment: Hepatic FVII gene knockdown in CCl4 hepatic fibrosis mouse model; type: in vivo; settings: male Balb/c mouse, Col1a1 siRNA + FVII siRNA 0.1 + 0.1 mg/kg intravenous, liver 4 days after administration, qPCR normalized with GAPDH
Experimental: as §3

[2] = system: human colorectal cancer-derived cell line HCT116; experiment: Transfection of cultured cell with mRNA (luciferase luminescence); type: cell-based; settings: 10 ng luciferase mRNA, 24 hours
Experimental: A human colorectal cancer-derived cell line HCT116 was cultured at a cell density of 6000 cells/well in a 96-well plate. 24 hours later, 10 μl of the lipid particle containing 10 ng of luciferase mRNA was added to the medium. 24 hours after the addition of mRNA, a reagent of Picagene LT2.0 kit (Toyobo Co., Ltd.) was added to the culture plate of HCT116. The luminescence (count per sec (cps)) of luciferase was measured using a luminescence plate reader EnVision (PerkinElmer, Inc.).

[3] = Analysis of luciferase mRNA-encapsulated lipid nanoparticle (Production Example 2); type: physicochemical; settings: for Rate of encapsulation / Average particle size: luciferase mRNA lipid nanoparticle; for mRNA concentration: luciferase mRNA lipid nanoparticle dispersion after dialysis and filtration; for Average particle size: cationic lipid:DPPC:cholesterol:GS-020=60:10.6:28:1.4
Source text: as §1, §2
A lipid mixture (cationic lipid:DPPC:cholesterol:GS-020=60:10.6:28:1.4, molar ratio) was dissolved in 90% of EtOH and 10% of water to obtain an 8.5 mg/ml lipid solution. Luciferase mRNA (TriLink BioTechnologies, Inc.) was dissolved in a 10 mM 2-morpholinoethanesulfonic acid (MES) buffer solution (pH 4.0) to obtain a 0.22 mg/ml nucleic acid solution. The obtained lipid solution and nucleic acid solution were mixed at a flow rate ratio of 3 ml/min:6 ml/min at room temperature using NanoAssemblr apparatus (Precision NanoSystems Inc.) to obtain a dispersion containing a composition. The obtained dispersion was dialyzed against water at room temperature for 1 hour and against PBS at 4° C. for 48 hours using Slyde-A-Lyzer (molecular weight cutoff: 20 K, Thermo Fischer Scientific Inc.). Subsequently, the dialysate was filtered through a 0.2 μm syringe filter (Iwaki) and preserved at 4° C.

| SMILES | Rate of encapsulation [1] | Particle size [1] | Col1a1 siRNA + FVII siRNA concentration [1] | Rate of Col1a1 knockdown (Col1a1 gene) | Rate of FVII knockdown (FVII gene) | Average luminescence (cps) of 3 wells ([2]; Table 10 (PBS control 293)) | Rate of encapsulation [3] | mRNA concentration [3] | Average particle size [3] | Average luminescence (cps) of 3 wells ([2]; Table 8 (PBS control 1293)) | Average luminescence (cps) of 3 wells ([2]; Table 9 (PBS control 80)) |
| --- | --- | --- | --- | --- | --- | --- | --- | --- | --- | --- | --- |
| CCCCCCCC(=O)OCC(COC(=O)CCCCCCC)(COC(=O)CCCCN(C)C)COC(=O)CCC(CCCCCCC)CCCCCCC [Example 1, 3-((5-(Dimethylamino)pentanoyl)oxy)-2,2-bis((octanoyloxy)methyl)propyl 4-heptylundecanoate] | 98% | 111 nm | 128 µg/mL | 86% | 0% | 110733 cps | 96% | 145 µg/mL | 112 nm | – | – |
| CCCCCCCC(=O)OCC(COC(=O)CCCCCCC)(COC(=O)CCCCN(C)C)COC(=O)CCC(CCCC)C(CCCC)CCCC (stereo not shown) [Example 10, 3-((5-(Dimethylamino)pentanoyl)oxy)-2,2-bis((octanoyloxy)methyl)propyl 4,5-dibutylnonanoate] | 97% | 101 nm | 137 µg/mL | 77% | 0% | 112893 cps | 96% | 83 µg/mL | 123 nm | 500747 cps | 176813 cps |
| CCCCCCCC(=O)OCC(COC(=O)CCCCCCC)(COC(=O)CCCCCN(C)C)COC(=O)CCC(CCCC)C(CCCC)CCCC (stereo not shown) [Example 11, 3-((6-(Dimethylamino)hexanoyl)oxy)-2,2-bis((octanoyloxy)methyl)propyl 4,5-dibutylnonanoate] | 97% | 91 nm | 320 µg/mL | 77% | 21% | – | 93% | 78 µg/mL | 122 nm | 572560 cps | – |
| CCCCCCCC(=O)OCC(COC(=O)CCCCCCC)(COC(=O)CCCCN(C)C)COC(=O)CCC(CCCCC)C(CCCCC)CCCCC (stereo not shown) [Example 13, 3-((5-(Dimethylamino)pentanoyl)oxy)-2,2-bis((octanoyloxy)methyl)propyl 4,5-dipentyldecanoate] | 97% | 103 nm | 122 µg/mL | 86% | 15% | – | 99% | 155 µg/mL | 119 nm | – | 269467 cps |
| CCCCCCCCCC(=O)OCC(COC(=O)CCCCCCCCC)(COC(=O)CCCCN(C)C)COC(=O)CCC(CCCC)C(CCCC)CCCC (stereo not shown) [Example 14, 2-(((4,5-Dibutylnonanoyl)oxy)methyl)-2-(((5-(dimethylamino)pentanoyl)oxy)methyl)propane-1,3-diyl didecanoate] | 96% | 97 nm | 126 µg/mL | 76% | 16% | 178133 cps | 94% | 134 µg/mL | 88 nm | – | – |
| CCCCCCCC(=O)OCC(COC(=O)CCCCCCC)(COC(=O)CCCN(C)C)COC(=O)CCC(CCCC)C(CCCC)CCCC (stereo not shown) [Example 19, 3-((4-(Dimethylamino)butanoyl)oxy)-2,2-bis((octanoyloxy)methyl)propyl 4,5-dibutylnonanoate] | 96% | 89 nm | 112 µg/mL | 71% | 31% | – | – | – | – | – | – |
